The nature of data set [1]: Protein binding assay (HT dialysis), rat liver microsomes. Format: in vitro ADME. The settings on record: pH 7.4, Rat liver microsomes 0.5 mg/mL, Mean ± SEM, n = 3, read-out: Fu Microsomes. As for the experimental part:
(§1) Unbound fractions of test compounds in plasma, brain homogenate and liver microsomes were determined using high-throughput dialysis (HT dialysis). Briefly, dialysis membranes were soaked in deionized water for 20 minutes and then in deionized water with 30% ethanol for 15 minutes and finally in phosphate buffer until use. Membranes were rinsed in phosphate buffer before assembling. The membranes were layered between teflon bars of dialysis assembly. Stock solutions of test compound/comparative compound were prepared at 10 mM in DMSO, diluted to 1 mM in acetonitrile and further diluted to 100 μM in mixture of water and acetonitrile (1:1 v/v). Human plasma (pool of 3) was prepared from human blood (3 donors) by centrifuging at 4000 rpm for 10 min at 4° C. Rat and dog blood were obtained on the day of the study and centrifuged to obtain plasma. Rat brains were isolated, cleaned and homogenized with 2 volumes of buffer (3 fold dilution). Liver microsomes were prepared at 0.5 mg/mL in phosphate buffer (100 mM, pH 7.4). The dialysate chambers were loaded with 150 μL of 100 mM phosphate buffer (pH 7.4) in triplicates. The matrix chambers were loaded with 150 μL of the plasma or brain homogenate or microsomal suspension spiked with test compound/comparative compound at a final concentration of 1 μM. 50 μL of the sample was removed from both the chambers at 0 h. The plate was sealed and incubated at 37° C. for 6 h at 100 rpm. After 6 h, 50 μL of the sample was removed from both the chambers. Equal volumes of buffer or human plasma/microsomal suspension were added to the plasma/microsomal and buffer samples respectively to create identical sample matrices for analysis. The samples were precipitated with 150 μL of acetonitrile containing fluoxetine as an internal standard. All the samples were centrifuged at 10000 rpm for 10 minutes at 4° C.

Data set [2] can be described thus: Protein binding assay (HT dialysis), rat plasma. Format: in vitro ADME. The settings on record: pH 7.4, Mean ± SEM, n = 3, read-out: Fu Plasma. As for the experimental part: as §1
A short description of data set [3]: Protein binding assay (HT dialysis), human liver microsomes. It is filed as in vitro ADME. The note with it: pH 7.4, Human liver microsomes 0.5 mg/mL, Mean ± SEM, n = 3, read-out: Fu Microsomes (converted). The protocol: as §1
For orientation: Microsomes from liver hold many membrane-bound enzymes, among them those of drug oxidation.

Data set [4] can be described thus: Rodent brain penetration study. It is filed as in vivo, Male Wistar rats. The settings on record: male, Wistar, brain/plasma, po; rat, 3 mg/kg, p.o. @ 1.0 hr; read-out: Single dose Rat Brain Penetration (Cb/Cp). The protocol: Male Wistar rats (260±40 grams) were used as experimental animals. Three animals were housed in each cage. Animals were given water and food ad libitum throughout the experiment and maintained on a 12 h light/dark cycle.
Brain penetration was determined in discrete manner in rats. One day prior to dosing day, male Wistar rats were acclimatized and randomly grouped according to their weight. At each time point (0.5, 1 and 2 h) n=3 animals were used.
The test compounds were suitably preformulated and administered orally at (free base equivalent) 3 mg/kg. Blood samples were removed via cardiac puncture by using isoflurane anesthesia. The animals were sacrificed to collect brain tissue. Plasma was separated and brain samples were homogenized and stored frozen at −20° C. until analysis. The concentrations of the test compounds in plasma and brain were determined using LC-MS/MS method.
The test compounds were quantified in plasma and brain homogenate by qualified LC-MS/MS method using suitable extraction technique. The test compounds were quantified in the calibration range of 1-500 ng/mL in plasma and brain homogenate. Study samples were analyzed using calibration samples in the batch and quality control samples spread across the batch.

Data set [5] can be described thus: Rodent pharmacokinetic study. Format: in vivo, Male Wistar rats. The settings on record: rat; for AUC(0-t) / clearance / half-life / Cmax: male, Wistar, plasma; for F: oral 3 mg/kg vs i.v. 1 mg/kg. As for the experimental part: Male Wistar rats (260±50 grams) were used as experimental animals. Animals were housed individually in polypropylene cage. Two days prior to study, male Wistar rats were anesthetized with isoflurane for surgical placement of jugular vein catheter. Rats were randomly divided for oral (3 mg/kg) and intravenous (i.v) (1 mg/kg) dosing (n=3/group) and fasted overnight before oral dosing (p.o.). However, rats allocated to intravenous (i.v.) dosing food and water was provided ad libitum.
At pre-determined point, blood was collected through jugular vein and replenished with an equivalent volume of normal saline. Collected blood was transferred into a labeled eppendorf tube containing 10 μL of heparin as an anticoagulant. Typically blood samples were collected at following time points: 0.08, 0.25, 0.5, 1, 2, 4, 6, 8, and 24 h post dose. Blood was centrifuged at 4000 rpm for 10 minutes. Plasma was separated and stored frozen at −80° C. until analysis. The concentrations of the test compounds were quantified in plasma by qualified LC-MS/MS method using suitable extraction technique. The test compounds were quantified in the calibration range around 1-1000 ng/mL in plasma. Study samples were analyzed using calibration samples in the batch and quality control samples spread across the batch.
Pharmacokinetic parameters Cmax, AUCt, T1/2, clearance and bioavailability (F) were calculated by non-compartmental model using standard non-compartmental model by using Phoenix WinNonlin 6.0.2 or 6.0.3 version Software package and the results are tabulated below.

Data set [6] can be described thus: Protein binding assay (HT dialysis), dog liver microsomes. Format: in vitro ADME. The settings on record: pH 7.4, Dog liver microsomes 0.5 mg/mL, Mean ± SEM, n = 3, read-out: Fu Microsomes (converted). The protocol:
as §1

For data set [7], the system named is hippocampal theta oscillations. Briefly: Theta modulation in dorsal hippocampus of anesthetized rats in combination with donepezil. It is filed as in vivo, Male Wistar rats. The settings on record: in combination with donepezil (0.3 mg/kg, i.v.), test compound 1 mg/kg.
Description: Male Wistar rats (240-320 g) were anesthetized by intraperitoneal administration of urethane (1.2 to 1.5 g/kg) for implantation of a catheter in the left femoral vein. The animal was placed in a stereotaxic frame for implanting an electrode (stainless steel wire, Plastics One) into the dorsal hippocampus (AP: 3.8 mm; ML: +2.2 mm; DV: 2.5 mm; Paxinos and Watson, 2004). Bipolar stimulating electrode (untwisted stainless steel wires, separated by 0.75-1.0 mm at their tips, Plastics One) was implanted in the Nucleus Pontis Oralis (NPO; AP: 7.8 mm; ML: 1.8 mm; DV: 6.0 mm; Paxinos and Watson, 2004). Additionally one electrode was implanted into the cerebellum which served as a reference. Hippocampal θ rhythm was evoked via a 6-s electrical stimulation train (20-160 μA, 0.3-ms pulse duration, 250 Hz) delivered to the NPO at a rate of 0.01 trains/s with a Grass S88 stimulator and PSIU6 stimulus isolation unit (Grass Medical Instruments, Quincy, MA). EEG was recorded at a rate of 1000 Hz using Ponemah (Version 5.2) software and stored for off-line analysis using NeuroScore (Version 3.0). […]
Power in the θ rhythm frequency in the stimulation period during the 30-min baseline period was calculated and the % changes in these measures post treatment were calculated. […]

Molecules are shown by their SMILES.

The values below come from US12156871B2, “Substituted azacycles as muscarinic M1 receptor positive allosteric modulators” (SUVEN LIFE SCIENCES LIMITED, priority 2017, dated 2024).

`COc1ccc(Cc2cc3c(nc2C)CN([C@H]2CCCC[C@@H]2O)C3=O)cc1` [Example 6, 6-(1S,2S-2-Hydroxycyclohexyl)-2-methyl-3-(4-methoxybenzyl)-6,7-dihydropyrrolo[3,4-b]pyridin-5-one]: the fraction unbound at 6 h, 1 μM was 0.798 ± 0.12 in data set [1], 0.113 ± 0.003 in data set [2], 0.938 in data set [3] and 0.906 in data set [6]. Besides, the Kp at 1 h in data set [4] is 0.35 ± 0.08. Also, the AUC(0-t) in data set [5] (iv, i.v. 1 mg/kg) turned out to be 1750 ± 312 ng·h/mL; in data set [5] (oral 3 mg/kg), 3520 ng·h/mL. Besides, in data set [5] (iv, i.v. 1 mg/kg), the clearance is 9.3 ± 2 mL/min/kg. Besides, the half-life in data set [5] (iv, i.v. 1 mg/kg) was 114 ± 30 min; in data set [5] (oral 3 mg/kg), 78 ± 6 min. This compound gave a Cmax in data set [5] (oral 3 mg/kg) of 1470 ± 26.5 ng/mL. The F in data set [5] is reported as 67 ± 5%.
For `COc1cccc(Cc2cc3c(nc2C)CN([C@H]2CCCC[C@@H]2O)C3=O)c1` [Example 38, 6-(1S,2S-2-Hydroxycyclohexyl)-2-methyl-3-(3-methoxybenzyl)-6,7-dihydropyrrolo[3,4-b]pyridin-5-one], the fraction unbound at 6 h, 1 μM in data set [1] was 0.826 ± 0.03; in data set [2], 0.103 ± 0.003; in data set [3], 0.87; in data set [6], 0.843. Also, the Kp at 1 h in data set [4] amounted to 0.45 ± 0.13. Moreover, in data set [7] (FIG. 1), the “effect of combination treatment on θ power compared with donepezil alone” value is given as “significantly higher than the donepezil alone”. The θ power levels entry in data set [7] (anesthetized rat) is “significant increase”. Also, the area under the curve AUC(0-t) in data set [5] (iv, i.v. 1 mg/kg) came out at 662 ± 33 ng·h/mL; in data set [5] (oral 3 mg/kg) it was 1010 ng·h/mL. This compound yielded a clearance in data set [5] (iv, i.v. 1 mg/kg) of 25.1 ± 1.2 mL/min/kg. In addition, the half-life is 30 min in data set [5] (iv, i.v. 1 mg/kg) and 36 ± 6 min in data set [5] (oral 3 mg/kg). Moreover, the Cmax in data set [5] (oral 3 mg/kg) amounted to 861 ± 168 ng/mL. Also, the F in data set [5] is 51 ± 17%.

The AUC(0-t) is the area under the concentration-time curve up to a stated or last time point. For orientation: clearance means the rate of elimination divided by the concentration. For orientation: half-life means the time needed for the level to fall by half in the phase considered. The term Cmax denotes the peak of the concentration-time curve.
